Data taken from ChEMBL document CHEMBL1201862, “PubChem BioAssay data set” (2004).
Activity calls are given as the source filed them.

Assays:
[1] = biological target: DNA damage-inducible transcript 3 protein (Mus musculus, UniProt P35639); type: functional, Cricetulus griseus
HEK293 [2] = assay: cells; type: functional, cell-based; conditions: Homo sapiens
[3] = biological target: T1, Nucleotide-binding oligomerization domain-containing protein 1 (Homo sapiens, UniProt Q9Y239); assay: NOD1 signaling inhibitors, SAR follow-up, revised (AID 2333); type: functional
T1 sequence (Q9Y239 whole entry): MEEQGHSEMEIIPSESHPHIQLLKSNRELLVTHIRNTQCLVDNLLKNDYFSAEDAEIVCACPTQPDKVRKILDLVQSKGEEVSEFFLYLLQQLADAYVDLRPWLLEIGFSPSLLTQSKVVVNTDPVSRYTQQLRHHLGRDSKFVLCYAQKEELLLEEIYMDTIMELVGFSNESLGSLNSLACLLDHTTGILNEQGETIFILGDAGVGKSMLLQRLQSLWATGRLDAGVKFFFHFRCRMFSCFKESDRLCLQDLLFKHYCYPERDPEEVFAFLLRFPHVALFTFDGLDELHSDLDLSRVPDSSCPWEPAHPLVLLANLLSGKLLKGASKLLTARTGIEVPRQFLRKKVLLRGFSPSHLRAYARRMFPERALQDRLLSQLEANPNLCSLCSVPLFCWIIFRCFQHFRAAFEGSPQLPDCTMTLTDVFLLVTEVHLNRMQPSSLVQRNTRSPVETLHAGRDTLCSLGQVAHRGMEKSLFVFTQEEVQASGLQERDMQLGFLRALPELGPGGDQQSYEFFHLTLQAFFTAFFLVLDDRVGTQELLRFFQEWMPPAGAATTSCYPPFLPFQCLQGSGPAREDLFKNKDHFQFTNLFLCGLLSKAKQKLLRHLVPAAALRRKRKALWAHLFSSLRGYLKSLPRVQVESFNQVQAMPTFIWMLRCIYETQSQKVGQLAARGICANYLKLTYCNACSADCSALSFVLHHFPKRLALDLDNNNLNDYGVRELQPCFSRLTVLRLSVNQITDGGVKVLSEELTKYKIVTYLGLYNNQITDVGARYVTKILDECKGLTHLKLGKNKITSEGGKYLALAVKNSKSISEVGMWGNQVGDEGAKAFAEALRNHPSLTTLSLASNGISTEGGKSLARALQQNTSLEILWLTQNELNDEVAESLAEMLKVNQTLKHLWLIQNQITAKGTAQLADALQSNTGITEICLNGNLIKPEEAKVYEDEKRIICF

[4] = biological target: T2, Nucleotide-binding oligomerization domain-containing protein 2 (Homo sapiens, UniProt Q9HC29); assay: PubChem AID 2334; type: functional
[5] = biological target: T2, Nucleotide-binding oligomerization domain-containing protein 2; assay: NOD2 signaling inhibitors, cell-based, luminescence, uHTS, HEK293 (AID 1566); type: functional
HEK293 [6] = assay: cells; type: functional, cell-based; conditions: Homo sapiens; remark: listed apart in the source
Tumor necrosis factor = Tumor necrosis factor (Homo sapiens, UniProt P01375); assay: TNFa-triggered NF-kB activation inhibitors, SAR follow-up, cell-based, revised (AID 2337); type: functional
HEK293 [7] = assay: NOD1 signaling inhibitors, primary screen, cell-based, luminescence, uHTS (AID 1578); type: functional; conditions: Homo sapiens
HEK293 [8] = assay: NOD2 signaling inhibitors in MDP-stimulated cells, cell-based, uHTS, luminescence (AID 2001); type: functional; conditions: Homo sapiens
HEK293 [9] = assay: cells; type: functional, cell-based; conditions: Homo sapiens; remark: listed apart in the source
HEK293 [10] = assay: cells; conditions: Homo sapiens
[11] = Fluorescence-based cell-based high throughput dose response assay for inhibitors of the interaction of nucleotide-binding oligomerization domain containing 2 (NOD2) and the receptor-interacting serine-threonine kinase 2 (RIPK2).; type: functional; conditions: Homo sapiens
[12] = Luminescence Cell-Based Dose Confirmation HTS to Identify Activators of 5'UTR Stem-Loop Driven Alpha-Synuclein mRNA Translation in H4 Neuroglioblastoma Cells. [Related pubchem assays: 1829 (Project Summary), 1814 (Primary HTS)]; type: functional
A-375 = assay: A375 melanoma cell viability reduction, dose response, counter-screen for MITF modulator project, cherry-pick samples, set 2 (AID 540335); type: functional, cell-based; conditions: Homo sapiens
[13] = biological target: T3, Microphthalmia-associated transcription factor (Homo sapiens, UniProt O75030); assay: TRPM1 promoter luciferase signal decrease, dose response, MITF inhibitor project, cell-based, SK-MEL-5, cherry-picked, set 3 (AID 493073); type: functional
T3 sequence (O75030 whole entry): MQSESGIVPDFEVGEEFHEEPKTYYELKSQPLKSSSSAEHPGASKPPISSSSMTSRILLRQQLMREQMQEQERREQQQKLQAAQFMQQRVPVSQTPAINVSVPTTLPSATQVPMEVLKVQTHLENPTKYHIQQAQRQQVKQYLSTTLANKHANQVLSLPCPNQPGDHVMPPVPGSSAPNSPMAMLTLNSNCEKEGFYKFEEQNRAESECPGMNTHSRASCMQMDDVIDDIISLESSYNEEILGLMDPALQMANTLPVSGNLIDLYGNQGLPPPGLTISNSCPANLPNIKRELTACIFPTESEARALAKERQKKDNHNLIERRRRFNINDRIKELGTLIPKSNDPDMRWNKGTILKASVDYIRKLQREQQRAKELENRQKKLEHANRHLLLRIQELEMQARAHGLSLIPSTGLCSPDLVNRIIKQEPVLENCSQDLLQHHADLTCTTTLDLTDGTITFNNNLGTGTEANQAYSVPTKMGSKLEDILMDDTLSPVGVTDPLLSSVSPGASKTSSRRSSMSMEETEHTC

[14] = biological target: T4, High affinity choline transporter 1 (Homo sapiens, UniProt Q9GZV3); assay: CHT inhibitors, dose response, cell-based, 5-point CRC, membrane potential dye (AID 504840); type: functional
T4 sequence (Q9GZV3 whole entry): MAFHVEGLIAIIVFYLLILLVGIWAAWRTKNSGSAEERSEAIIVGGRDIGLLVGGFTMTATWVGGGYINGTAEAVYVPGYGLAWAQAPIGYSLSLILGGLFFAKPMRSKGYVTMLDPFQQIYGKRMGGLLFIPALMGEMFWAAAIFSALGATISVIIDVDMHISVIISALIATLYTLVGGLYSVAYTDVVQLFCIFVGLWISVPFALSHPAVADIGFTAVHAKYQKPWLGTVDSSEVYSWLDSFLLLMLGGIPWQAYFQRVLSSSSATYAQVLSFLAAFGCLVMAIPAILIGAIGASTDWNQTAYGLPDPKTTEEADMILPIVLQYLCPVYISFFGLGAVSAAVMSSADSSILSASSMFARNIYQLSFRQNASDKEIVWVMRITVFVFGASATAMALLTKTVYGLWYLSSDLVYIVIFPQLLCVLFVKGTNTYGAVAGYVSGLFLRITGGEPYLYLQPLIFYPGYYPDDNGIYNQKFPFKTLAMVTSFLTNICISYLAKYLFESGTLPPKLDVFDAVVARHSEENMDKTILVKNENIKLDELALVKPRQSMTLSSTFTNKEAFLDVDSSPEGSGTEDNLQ

H4 = assay: Luminescence Cell-Based Dose Response HTS to Identify Activators of 5'UTR Stem-Loop Driven Prion Protein mRNA Translation in H4 Neuroglioblastoma Cells. [Related pubchem assays: 1829 (Project Summary), 1814 (Primary HTS)]; type: functional; conditions: Homo sapiens
Paired box protein Pax-8 = Paired box protein Pax-8 (Homo sapiens, UniProt Q06710); assay: inhibitors of PAX8-driven TPO luciferase reporter, dose response, RMG-I cells, cherry-pick (AID 687027); type: functional, cell-based;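 note: luciferase reporter driven by Pax8 target thyroperoxidase promoter measured by SteadyGlo luminescence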
Galanin receptor type 3 = Galanin receptor type 3 (Homo sapiens, UniProt O60755); assay: Fluorescence-based cell-based primary high throughput dose response assay to identify antagonists of the Galanin Receptor 3 (GalR3).; type: functional
[15] = biological target: T5, Heat shock factor protein 1 (Mus musculus, UniProt P38532); assay: inhibition of MG132-induced HSE-luciferase signal, confirmation, cell-based, NIH3T3, luminescence, dose retest (AID 2382); type: functional;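 note: NIH3T3 fibroblasts with HSF1-driven luciferase reporter stressed by proteasome inhibitor MG132; luminescence from HSF1-driven luciferase expression after 8 hours of MG132 stress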
T5 sequence (P38532 whole entry): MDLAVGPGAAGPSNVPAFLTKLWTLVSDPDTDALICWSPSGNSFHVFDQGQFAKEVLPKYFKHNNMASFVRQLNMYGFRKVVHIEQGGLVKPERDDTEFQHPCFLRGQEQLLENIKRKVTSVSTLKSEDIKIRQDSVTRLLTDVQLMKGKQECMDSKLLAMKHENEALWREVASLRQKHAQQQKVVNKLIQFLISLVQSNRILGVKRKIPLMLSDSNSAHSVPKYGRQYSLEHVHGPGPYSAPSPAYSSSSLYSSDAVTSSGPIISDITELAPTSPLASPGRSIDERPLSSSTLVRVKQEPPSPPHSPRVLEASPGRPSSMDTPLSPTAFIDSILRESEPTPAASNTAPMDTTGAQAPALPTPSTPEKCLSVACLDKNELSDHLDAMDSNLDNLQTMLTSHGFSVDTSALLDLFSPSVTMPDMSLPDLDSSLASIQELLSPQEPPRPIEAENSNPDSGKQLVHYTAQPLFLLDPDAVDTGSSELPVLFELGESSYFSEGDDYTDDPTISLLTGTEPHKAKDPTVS

cells = type: functional, cell-based; conditions: HEK-CNG
[16] = biological target: G-protein coupled receptor 55 (Homo sapiens, UniProt Q9Y2T6); assay: GPR55 antagonists blocking LPI-driven arrestin recruitment, primary screen, imaging, U2OS, beta-arrestin-GFP, LPI agonist (AID 2013); type: functional;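 note: antagonist potency measured as reduced agonist-driven arrestin aggregation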
[17] = Luminescence Cell-Based Dose Response HTS to Identify Activators of Luciferase Translation or Activity in H4 […] Cells. [Related pubchem assays: 1829 (Project Summary), 1814 (Primary HTS)]; type: functional
Troponin, cardiac muscle = Troponin, cardiac muscle (Homo sapiens, UniProt P19429+P45379+P63316); assay: Fluorescence-based biochemical high throughput dose response assay for activators of the calcium sensitivity of cardiac Regulated Thin Filaments (RTF). [Related pubchem assays (depositor defined):AID493008, AID493018, AID504382, AID504383]; type: protein-complex assay
Coagulation factor XII = biological target: T6, Coagulation factor XII (Homo sapiens, UniProt P00748); type: functional;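 note: activated factor XIIa alpha cleaving a fluorogenic AMC peptide substrate; inhibitor potency from loss of enzyme activity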
T6 sequence (P00748 whole entry): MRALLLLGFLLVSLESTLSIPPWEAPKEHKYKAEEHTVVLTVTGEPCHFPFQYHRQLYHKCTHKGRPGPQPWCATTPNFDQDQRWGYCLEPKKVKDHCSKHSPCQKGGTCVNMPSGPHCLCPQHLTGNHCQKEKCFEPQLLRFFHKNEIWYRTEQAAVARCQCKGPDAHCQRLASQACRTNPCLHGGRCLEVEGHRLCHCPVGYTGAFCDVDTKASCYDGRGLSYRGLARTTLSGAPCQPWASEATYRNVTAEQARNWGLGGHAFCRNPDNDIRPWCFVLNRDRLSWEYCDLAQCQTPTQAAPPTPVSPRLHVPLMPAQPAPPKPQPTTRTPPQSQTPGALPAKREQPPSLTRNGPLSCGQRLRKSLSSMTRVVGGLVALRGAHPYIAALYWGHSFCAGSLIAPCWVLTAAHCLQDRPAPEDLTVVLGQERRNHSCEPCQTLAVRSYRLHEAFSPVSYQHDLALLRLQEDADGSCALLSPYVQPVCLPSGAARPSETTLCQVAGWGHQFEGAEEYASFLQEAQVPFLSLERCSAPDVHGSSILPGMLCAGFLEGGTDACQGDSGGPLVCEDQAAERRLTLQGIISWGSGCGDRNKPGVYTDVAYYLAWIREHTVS

With `CCOc1ccc2nc(NC(=O)CSc3nc4c(c(=O)n(C)c(=O)n4C)n3C(C)C)sc2c1` the “Absolute IC50 (CHOP)” value [1] was 10 µM.

In the case of `Cc1c(C(=O)OCC(=O)c2c(N)n(CC(C)C)c(=O)n(C)c2=O)oc2ccccc12`, the IC50 (HEK293 [2]) is reported as > 20 µM (inactive), the IC50 [3] is reported as 17.4 µM (active) and the IC50 [4] is reported as 14.9 µM (active). The EC50 [5] was > 20 µM (inactive), the IC50 (HEK293 [6]) was > 20 µM (inactive) and the IC50 (Tumor necrosis factor) was > 20 µM (inactive). For the same compound, the EC50 (HEK293 [7]) was 15.7 µM (active), the IC50 (HEK293 [8]) was 19 µM (inactive) and the IC50 (HEK293 [9]) was > 20 µM (inactive). The IC50 (HEK293 [10]) was > 20 µM (inactive).

With `CCCCn1c(=O)[nH]c(=O)c2c1nc(Cn1ncc(Cl)c(Cl)c1=O)n2CCC` the IC50 [11] was 2.15 µM (active), the EC50 [12] was > 120 µM (not active) and the AC50 (A-375) was 28.9 µM (active). The AC50 [13] was 8.12 µM (active), the IC50 [14] was 12.6 µM (active) and the EC50 (H4) was > 120 µM (not active). For the same compound, the AC50 (Paired box protein Pax-8) was 6.68 µM (active), the IC50 (Galanin receptor type 3) was > 3.32 µM (active) and the EC50 [15] was 2.89 µM (active). The EC50 (cells) was > 29.9 µM (inactive), the IC50 [16] was 6.1 µM (active) and the EC50 [17] was > 120 µM (not active).

For `COCCn1c(=O)c2ccccc2c2ccccc2c1=O`, the EC50 (Troponin, cardiac muscle) was > 71.5 µM (inactive).

For `CC(C)Oc1ccc(CNC(=S)N/N=C/c2ccc([N+](=O)[O-])cc2)cc1`, the “Absolute IC50 (CHOP)” value [1] was 10 µM, the EC50 [15] was > 195 µM (not active) and the IC50 (Coagulation factor XII) was > 50 µM (inactive).
